Holding throughout (type): in vivo
The test system of experiment [1] is Gm chloroplastic ALT-1-01 soybean plants. The experiment can be described thus: Glyphosate tolerance of soybean plants, herbicide damage rate. The following applies: 840 g ae/ha (1-fold field concentration), 14 DAT. An excerpt:
(§1) The herbicide tolerance effects of Gm cytoplasmic ALT-1-01 soybean plants, Gm chloroplastic ALT-1-01 soybean plants, Gm cytoplasmic ALT-2-01 soybean plants, Gm chloroplastic ALT-2-01 soybean plants, Gm cytoplasmic ALT-3-01 soybean plants, Gm chloroplastic ALT-3-01 soybean plants and wild-type soybean plants on glyphosate were detected (at seedling stage), respectively.
(§2) 2 strains from Gm cytoplasmic ALT-1-01 soybean plants, Gm chloroplastic ALT-1-01 soybean plants, Gm cytoplasmic ALT-2-01 soybean plants, Gm chloroplastic ALT-2-01 soybean plants, Gm cytoplasmic ALT-3-01 soybean plants, Gm chloroplastic ALT-3-01 soybean plants and wild-type soybean plants were respectively taken each, and 10-15 plants were selected from each strain and tested. The plants above were sprayed with glyphosate (840 g ae/ha, 1-fold field concentration) and a blank solvent (water). The herbicide damage rate was measured for each plant according to the phytotoxicity symptoms 14 days after spraying (14 DAT): herbicide damage rate (%)=Σ(number of damaged plants at the same level× level number)/(total number of plants×highest level).

Experiment [2] concerns Gm chloroplastic ALT-2-01 soybean plants. The description is as above. The following applies: 840 g ae/ha (1-fold field concentration), 14 DAT.
From the text: as §1, §2

For experiment [3], the system named is Gm chloroplastic ALT-3-01 soybean plants. The experiment is described as above. The following applies: 840 g ae/ha (1-fold field concentration), 14 DAT.
From the text: as §1, §2

Experiment [4] relates to Gm cytoplasmic ALT-1-01 soybean plants. The experiment is described as above. The following applies: 840 g ae/ha (1-fold field concentration), 14 DAT.
From the text: as §1, §2

Experiment [5] deals with Gm cytoplasmic ALT-2-01 soybean plants. Described as above. The following applies: 840 g ae/ha (1-fold field concentration), 14 DAT.
From the text: as §1, §2

For experiment [6], the system named is Gm cytoplasmic ALT-3-01 soybean plants. The experiment is described as above. The following applies: 840 g ae/ha (1-fold field concentration), 14 DAT.
From the text: as §1, §2

For experiment [7], the system named is wild-type soybean plants (CK1). Described as above. The following applies: 840 g ae/ha (1-fold field concentration), 14 DAT.
From the text: as §1, §2

Experiment [8] relates to At chloroplastic ALT-1-01 T1 plants. The experiment can be described thus: Herbicide tolerance of Arabidopsis thaliana T1 plants, sprayed, resistance classes counted 14 days after spraying. The following applies: sprayed at 1-fold field concentration.
From the text: (§3) T1 transformants were initially selected from the background of untransformed seeds using a glufosinate selection scheme. About 40000 T1 seeds were screened, and 380 T1 positive transformants (PAT gene) were identified with a transformation efficiency of about 0.95%. The plants that were transformed with the recombinant expression vector DBN100632 were Arabidopsis thaliana plants having an ALT-1-01 nucleotide sequence located in the cytoplasm introduced (At cytoplasmic ALT-1-01), and the plants that were transformed with the recombinant expression vector DBN100631 were Arabidopsis thaliana plants having an ALT-1-01 nucleotide sequence located in the chloroplast introduced (At chloroplastic ALT-1-01); the plants that were transformed with the recombinant expression vector DBN100634 were Arabidopsis thaliana plants having an ALT-2-01 nucleotide sequence located in the cytoplasm introduced (At cytoplasmic ALT-2-01), and the plants that were transformed with the recombinant expression vector DBN100633 were Arabidopsis thaliana plants having an ALT-2-01 nucleotide sequence located in the chloroplast introduced (At chloroplastic ALT-2-01); and the plants that were transformed with the recombinant expression vector DBN100636 were Arabidopsis thaliana plants having an ALT-3-01 nucleotide sequence located in the cytoplasm introduced (At cytoplasmic ALT-3-01), and the plants that were transformed with the recombinant expression vector DBN100635 were Arabidopsis thaliana plants having an ALT-3-01 nucleotide sequence located in the chloroplast introduced (At chloroplastic ALT-3-01).
(§4) Plants were counted for the resistance situations 14 days after spraying: those having a consistent growth status with the blank solvent (water) group after 14 days were classified as highly resistant plants, those having a bolting height less than ½ of that of the blank solvent (water) group after 14 days were classified as moderately resistant plants, those still not capable of bolting after 14 days were classified as poorly resistant plants, and those dead after 14 days were classified as non-resistant plants. Since each Arabidopsis thaliana T1 plant was an independent transformation event, a significant difference in individual T1 responses could be expected at a given dose.
as §4, with “situation” for “situations”

Experiment [9] deals with At chloroplastic ALT-2-01 T1 plants. The description is as above. The following applies: sprayed at 1-fold field concentration.
From the text: as §3, §4
as §4, with “situation” for “situations”

The subject of experiment [10] is At chloroplastic ALT-3-01 T1 plants. The description is as above. The following applies: sprayed at 1-fold field concentration.
From the text: as §3, §4
as §4, with “situation” for “situations”

Experiment [11] relates to At cytoplasmic ALT-1-01 T1 plants. The experiment is described as above. The following applies: sprayed at 1-fold field concentration.
From the text: as §3, §4
as §4, with “situation” for “situations”

In experiment [12] the test system is At cytoplasmic ALT-2-01 T1 plants. Described as above. The following applies: sprayed at 1-fold field concentration.
From the text: as §3, §4
as §4, with “situation” for “situations”

Experiment [13] concerns At cytoplasmic ALT-3-01 T1 plants. The description is as above. The following applies: sprayed at 1-fold field concentration.
From the text: as §3, §4
as §4, with “situation” for “situations”

For experiment [14], the system named is wild-type Arabidopsis thaliana plants. The experiment can be described thus: Herbicide tolerance of Arabidopsis thaliana plants, sprayed, resistance classes counted 14 days after spraying. The following applies: wild-type; sprayed at 1-fold field concentration; 14 days after spraying.
From the text: as §3, §4
as §4, with “situation” for “situations”

The test system of experiment [15] is transformed Arabidopsis thaliana T1 plants (ALT-1, ALT-2 and ALT-3). The experiment in a line: Herbicide tolerance of transgenic Arabidopsis thaliana T1 plants, overall conclusion. The following applies: all transformed Arabidopsis thaliana T1 plants; 1-fold field concentration.
From the text: as §4
as §4, with “situation” for “situations”

For `O=C(O)CNCP(=O)(O)O` [glyphosate, N-phosphonomethylglycine], the “glyphosate herbicide damage rate” value in [1], in [2], in [3], in experiment [4], in [5] and in [6] was approximately 0% in each case. Moreover, the “glyphosate herbicide damage rate” value in experiment [7] was “not less than 90%”.
`COC(=O)c1ccc(I)cc1S(=O)(=O)NC(=O)Nc1nc(C)nc(OC)n1` [iodosulfuron-methyl]: the “Highly resistant (number of plants)” value in experiment [8], in experiment [9], in [10], in experiment [11], in experiment [12] and in experiment [13] was 0 each time. Also, the “Highly resistant (number of plants)” value in [14] worked out at 0. The “Moderately resistant (number of plants)” value in experiment [8], in experiment [9], in experiment [10], in [11], in [12] and in experiment [13] was 0 each time. Also, in [14], the “Moderately resistant (number of plants)” value is listed as 0. The “Non-resistant (number of plants)” value in experiment [8] stood at 30; in experiment [9], 31; in [10], 32; in experiment [11], 29; in experiment [12], 30; in [13], 30. Besides, in [14], the “Non-resistant (number of plants)” value is reported as 29. Further, the “Poorly resistant (number of plants)” value in [8], in [9], in experiment [10], in experiment [11], in experiment [12] and in [13] was 0 throughout. The “Poorly resistant (number of plants)” value in experiment [14] was 0. Besides, the “ability of the transformed plants to degrade the herbicide (in words)” value (from here on “ability of the transformed plants”) in experiment [15] is listed as “did not exhibit the ability to degrade”.
As to `COC(=O)c1ccc(CNS(C)(=O)=O)cc1S(=O)(=O)NC(=O)Nc1nc(OC)cc(OC)n1` [mesosulfuron], the “Highly resistant (number of plants)” value in experiment [8], in [9], in [10], in [11], in experiment [12] and in [13] was 0 throughout. The “Highly resistant (number of plants)” value in experiment [14] is on record as 0. The “Moderately resistant (number of plants)” value in experiment [8], in experiment [9], in experiment [10], in experiment [11], in [12] and in experiment [13] was 0 in each case. Besides, the “Moderately resistant (number of plants)” value in experiment [14] was 0. Moreover, the “Non-resistant (number of plants)” value in experiment [8] was 32; in experiment [9], 30; in [10], 32; in [11], 29; in [12], 32; in experiment [13], 30. Moreover, the “Non-resistant (number of plants)” value in experiment [14] was 28. In addition, the “Poorly resistant (number of plants)” value in experiment [8], in experiment [9], in experiment [10], in experiment [11], in [12] and in [13] was 0 in each case. The “Poorly resistant (number of plants)” value in experiment [14] was 0. The “ability of the transformed plants” value in experiment [15] was “did not exhibit the ability to degrade”.
Take `Cc1cc(C)nc(NC(=O)NS(=O)(=O)c2ccccc2C(=O)OC2COC2)n1` [oxasulfuron]: the “Highly resistant (number of plants)” value in experiment [8], in experiment [9], in experiment [10], in experiment [11], in experiment [12] and in [13] was 0 throughout. Besides, in [14], the “Highly resistant (number of plants)” value is given as 0. Further, the “Moderately resistant (number of plants)” value in experiment [8], in experiment [9], in [10], in experiment [11], in [12] and in experiment [13] was 0 throughout. In [14], the “Moderately resistant (number of plants)” value came out at 0. Also, the “Non-resistant (number of plants)” value in experiment [8] came out at 30; in experiment [9] it was 30; in experiment [10] it was 31; in experiment [11], 28; in experiment [12], 30; in [13], 30. Further, the “Non-resistant (number of plants)” value in experiment [14] was determined as 28. For the same compound, the “Poorly resistant (number of plants)” value in [8], in experiment [9], in experiment [10], in experiment [11], in experiment [12] and in [13] was 0 in each case. In addition, the “Poorly resistant (number of plants)” value in experiment [14] is given as 0. Besides, in [15], the “ability of the transformed plants” value is reported as “did not exhibit the ability to degrade”.
